Test results as given in patent publication US7612087B2, “Heterocyclic compounds as inhibitors of beta-lactamases” (Novexel, priority 2002, dated 2009).

Columns and labels:
E. coli 250HT26 (SHV1) = experiment: MIC, micro-dilution in liquid medium, β-lactamine with product at 5 mg/l; type: cell-based; details: compound at 5 mg/l, 24 hours at 37° C.; for MIC of Cefotaxime in combination with the compound: Trial 6, 250HT26 E. coli SHV1; for MIC of Piperacillin in combination with the compound: Trial 6, 250HT26 SHV1
Experimental: (§1) The operation is carried out as follows, using the so-called micro-dilution in liquid medium method.
(§2) A series of concentrations of the β-lactamine is prepared in the presence of a constant concentration (5 mg/l) of the product to be studied, each is then seeded with various bacterial strains.
(§3) After incubation for 24 hours in a heating chamber at 37° C., the growth inhibition is evaluated by the absence of any bacterial development, which allows the minimal inhibitory concentrations (MIC) for each strain to be determined, expressed in milligrams/l.

E. coli 250BE1 (SHV4) = experiment: as above; type: cell-based; details: compound at 5 mg/l, 24 hours at 37° C.; for MIC of Cefotaxime in combination with the compound: Trial 7, 250BE1 E. coli SHV4; for MIC of Piperacillin in combination with the compound: Trial 7, 250BE1 SHV4
Experimental: as §1, §2, §3

E. coli 250HT21 (Tem1) = experiment: as above; type: cell-based; details: compound at 5 mg/l, 24 hours at 37° C.; for MIC of Cefotaxime in combination with the compound: Trial 2, 250HT21 E. coli Tem1; for MIC of Piperacillin in combination with the compound: Trial 2, 250HT21 Tem1
Experimental: as §1, §2, §3

[1] = tested on: E. coli 250HT23 (Class D); experiment: as above; type: cell-based; details: compound at 5 mg/l, 24 hours at 37° C.; for MIC of Piperacillin in combination with the compound: Trial 8, 250HT23 Class D; for MIC of Cefotaxime in combination with the compound: Trial 8, 250HT23 E. coli Class D
Experimental: as §1, §2, §3

E. coli 250HT22 (Tem2) = experiment: as above; type: cell-based; details: compound at 5 mg/l, 24 hours at 37° C.; for MIC of Cefotaxime in combination with the compound: Trial 3, 250HT22 E. coli Tem2; for MIC of Piperacillin in combination with the compound: Trial 3, 250HT22 Tem2
Experimental: as §1, §2, §3

E. coli 250SJ1 (Tem7) = experiment: as above; type: cell-based; details: compound at 5 mg/l, 24 hours at 37° C.; for MIC of Cefotaxime in combination with the compound: Trial 5, 250SJ1 E. coli Tem7; for MIC of Piperacillin in combination with the compound: Trial 5, 250SJ1 Tem7
Experimental: as §1, §2, §3

Serratia 301HT6 = experiment: as above; type: cell-based; details: compound at 5 mg/l; Trial 10, 301HT6 Serratia; 24 hours at 37° C.
Experimental: as §1, §2, §3

[2] = tested on: P. aeruginosa 391HT8 (PSE); experiment: as above; type: cell-based; details: compound at 5 mg/l, 24 hours at 37° C.; for MIC of Cefotaxime in combination with the compound: Trial 12, 391HT8 P. aeruginosa PSE; for MIC of Piperacillin in combination with the compound: Trial 12, 391HT8 PSE
Experimental: as §1, §2, §3

[3] = tested on: S. aureus 011GO66 (PeniR); experiment: as above; type: cell-based; details: compound at 5 mg/l, 24 hours at 37° C.; for MIC of Cefotaxime in combination with the compound: Trial 1, 011GO66 S. aureus PeniR; for MIC of Piperacillin in combination with the compound: Trial 1, 011GO66 peniR
Experimental: as §1, §2, §3

[4] = tested on: P. aeruginosa 391HT7 (PSE); experiment: as above; type: cell-based; details: compound at 5 mg/l, 24 hours at 37° C.; for MIC of Cefotaxime in combination with the compound: Trial 11, 391HT7 P. aeruginosa PSE; for MIC of Piperacillin in combination with the compound: Trial 11, 391HT7 PSE
Experimental: as §1, §2, §3

[5] = tested on: E. cloacae 293HT6 (Class C); experiment: as above; type: cell-based; details: compound at 5 mg/l, 24 hours at 37° C.; for MIC of Piperacillin in combination with the compound: Trial 9, 293HT6 Class; for MIC of Cefotaxime in combination with the compound: Trial 9, 293HT6 E. cloacae Class C
Experimental: as §1, §2, §3

E. coli 250CF1 (Tem3) = experiment: microbe, parasite or virus in culture; type: cell-based; details: compound at 5 mg/l, 24 hours at 37° C.; for MIC of Cefotaxime in combination with the compound: Trial 4, 250CF1 E. coli Tem3; for MIC of Piperacillin in combination with the compound: Trial 4, 250CF1 Tem3
Experimental: as §1, §2, §3

β-lactamase P99 = biological target: T1, β-lactamase P99 (Enterobacter cloacae, UniProt P05364); experiment: biochemical; details: 100 μM Nitrocefin, 50 mM sodium phosphate buffer pH7.0, 37° C.; read-out: IC50 nM/P99
T1 construct: The β-lactamases are isolated from bacterial strains which are resistant to penicillins and cephalosporins; endogenous in cells; host or cells: Enterobacter cloacae 293HT6 (natural producer; French-press lysate, 100,000 g supernatant)
Method in brief: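 P99 β-lactamase, taken from the soluble fraction of an Enterobacter cloacae 293HT6 lysate, was assayed at 37° C. in 50 mM sodium phosphate buffer pH7.0 with 100 μM Nitrocefin as the chromogenic substrate. Hydrolysis was followed kinetically at 485 nm at initial speed, with and without a 5 mn enzyme–inhibitor preincubation. Inhibitors were tested at 6 or 8 concentrations in duplicate, and IC50 was fitted with GraFit.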

β-lactamase TEM1 = biological target: T2, β-lactamase TEM1 (Escherichia coli, UniProt P62593); experiment: Inhibition of isolated β-lactamase Tem-1 (Nitrocefin hydrolysis); type: biochemical, E.coli 250HT21; details: 100 μM Nitrocefin, 50 mM sodium phosphate buffer pH7.0, 37° C.
T2 construct: The β-lactamases are isolated from bacterial strains which are resistant to penicillins and cephalosporins; endogenous in cells; host or cells: E. coli 250HT21 (natural producer; French-press lysate, 100,000 g supernatant)
Method in brief: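 TEM-1 from soluble extract of E. coli 250HT21, normalized enzyme, 100 μM Nitrocefin in 50 mM sodium phosphate pH 7.0 at 37 °C. Initial-rate hydrolysis read kinetically at 485 nm, with and without 5 min enzyme–inhibitor preincubation. CI50 from 6 or 8 concentrations in duplicate.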

T1 sequence (P05364 21-381): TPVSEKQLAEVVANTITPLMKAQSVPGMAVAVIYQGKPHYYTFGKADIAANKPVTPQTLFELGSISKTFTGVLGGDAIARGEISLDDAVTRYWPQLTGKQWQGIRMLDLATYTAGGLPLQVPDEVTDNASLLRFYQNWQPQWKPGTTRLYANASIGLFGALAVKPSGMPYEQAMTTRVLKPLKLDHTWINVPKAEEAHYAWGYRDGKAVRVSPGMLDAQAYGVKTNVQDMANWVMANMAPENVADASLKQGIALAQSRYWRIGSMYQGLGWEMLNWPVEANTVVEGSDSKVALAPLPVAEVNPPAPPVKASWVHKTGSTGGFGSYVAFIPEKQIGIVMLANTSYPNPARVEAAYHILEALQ
T2 sequence (P62593 24-286 limits assumed): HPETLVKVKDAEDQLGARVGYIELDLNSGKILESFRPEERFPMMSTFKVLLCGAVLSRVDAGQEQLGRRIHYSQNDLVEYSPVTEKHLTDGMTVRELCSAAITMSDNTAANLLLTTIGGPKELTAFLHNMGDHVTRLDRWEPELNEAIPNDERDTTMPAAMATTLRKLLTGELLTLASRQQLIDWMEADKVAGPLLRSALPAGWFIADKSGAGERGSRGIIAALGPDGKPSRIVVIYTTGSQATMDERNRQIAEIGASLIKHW

SMILES | MIC of Cefotaxime in combination with the compound (E. coli 250HT26 (SHV1)) | MIC of Piperacillin in combination with the compound (E. coli 250HT26 (SHV1)) [µg/mL] | MIC of Cefotaxime in combination with the compound (E. coli 250BE1 (SHV4)) [µg/mL] | MIC of Piperacillin in combination with the compound (E. coli 250BE1 (SHV4)) [µg/mL] | MIC of Cefotaxime in combination with the compound (E. coli 250HT21 (Tem1)) | MIC of Piperacillin in combination with the compound (E. coli 250HT21 (Tem1)) [µg/mL] | MIC of Piperacillin in combination with the compound [1] [µg/mL] | MIC of Cefotaxime in combination with the compound [1] | MIC of Cefotaxime in combination with the compound (E. coli 250HT22 (Tem2)) | MIC of Piperacillin in combination with the compound (E. coli 250HT22 (Tem2)) [µg/mL] | MIC of Cefotaxime in combination with the compound (E. coli 250SJ1 (Tem7)) | MIC of Piperacillin in combination with the compound (E. coli 250SJ1 (Tem7)) [µg/mL] | MIC of Cefotaxime in combination with the compound (Serratia 301HT6) | MIC of Piperacillin in combination with the compound (Serratia 301HT6) [µg/mL] | MIC of Cefotaxime in combination with the compound [2] [µg/mL] | MIC of Piperacillin in combination with the compound [2] [µg/mL] | MIC of Cefotaxime in combination with the compound [3] [µg/mL] | MIC of Piperacillin in combination with the compound [3] [µg/mL] | MIC of Cefotaxime in combination with the compound [4] [µg/mL] | MIC of Piperacillin in combination with the compound [4] [µg/mL] | other results
O=C(NCCc1ccccn1)[C@H]1CC[C@@H]2CN1C(=O)N2OS(=O)(=O)[O-].[Na+] (relative stereo) [Example 38, sodium salt of trans-7-oxo-N-[2-(2-pyridinyl)ethyl]-6-(sulphooxy)-1,6-diazabicyclo[3.2.1]octane-2-carboxamide] | <=0.04 μg/ml | 40 | 0.3 | >40 | <=0.04 μg/ml | 5 | >40 | <=0.04 μg/ml | <=0.04 μg/ml | >40 | <=0.04 μg/ml | >40 | 0.08 µg/mL | 1.2 | 40 | >40 | 1.2 | 0.6 | 40 | >40 | MIC of Piperacillin in combination with the compound [5]: 40 µg/mL; MIC of Cefotaxime in combination with the compound [5]: 20 µg/mL; MIC of Cefotaxime in combination with the compound (E. coli 250CF1 (Tem3)): 0.3 µg/mL; MIC of Piperacillin in combination with the compound (E. coli 250CF1 (Tem3)): 20 µg/mL; IC50 (β-lactamase P99): 77 nM; IC50 (β-lactamase TEM1): 35 nM
NC(=O)c1cccc(NC(=O)[C@H]2CC[C@@H]3CN2C(=O)N3OS(=O)(=O)[O-])c1.[Na+] (relative stereo) [Example 39, sodium salt of trans-N-[3-(aminocarbonyl)phenyl]-7-oxo-6-(sulphooxy)-1,6-diazabicyclo[3.2.1]octane-2-carboxamide] | <=0.04 μg/ml | 40 | 0.08 | 20 | <=0.04 μg/ml | 2.5 | 10 | <=0.04 μg/ml | <=0.04 μg/ml | 20 | <=0.04 μg/ml | >40 | <=0.04 μg/ml | 0.6 | 20 | >40 | 2.5 | 1.2 | 20 | >40 | MIC of Piperacillin in combination with the compound [5]: 20 µg/mL; MIC of Cefotaxime in combination with the compound [5]: 1.2 µg/mL; MIC of Cefotaxime in combination with the compound (E. coli 250CF1 (Tem3)): 0.08 µg/mL; MIC of Piperacillin in combination with the compound (E. coli 250CF1 (Tem3)): 40 µg/mL; IC50 (β-lactamase P99): 50 nM; IC50 (β-lactamase TEM1): 31 nM
O=C(NCCc1cccnc1)[C@H]1CC[C@@H]2CN1C(=O)N2OS(=O)(=O)[O-].[Na+] (relative stereo) [Example 36, sodium salt of trans-7-oxo-N-[2-(3-pyridinyl)ethyl]-6-(sulphooxy)-1,6-diazabicyclo[3.2.1]octane-2-carboxamide] | <=0.04 μg/ml | 20 | 0.3 | >40 | <=0.04 μg/ml | 5 | 20 | <=0.04 μg/ml | <=0.04 μg/ml | 40 | <=0.04 μg/ml | 20 | 0.08 µg/mL | 1.2 | 40 | >40 | 1.2 | 1.2 | 40 | >40 | MIC of Piperacillin in combination with the compound [5]: 20 µg/mL; MIC of Cefotaxime in combination with the compound [5]: 20 µg/mL; MIC of Cefotaxime in combination with the compound (E. coli 250CF1 (Tem3)): 0.3 µg/mL; MIC of Piperacillin in combination with the compound (E. coli 250CF1 (Tem3)): 40 µg/mL; IC50 (β-lactamase P99): 110 nM; IC50 (β-lactamase TEM1): 23 nM
